From PubChem BioAssay AID1963830 (Molecular Pharmacology Branch, DTP, NCI, 2024)
pIC50: −log10 of the molar value.

Test system: 922993-354-T-J3-PDC complex spheroid viability
Experiment: Anticancer human tumor 922993-354-T-J3-PDC patient-derived endometrial carcinoma cell line growth inhibition [POLQ]
Settings: for pIC50: curve of first compound; for viability, T/C: stronger effect = lower value; active means viability on the fitted dose curve at most 10% of control; inactive means the rest
Outline: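 Growth inhibition in 3D: complex spheroids (tumor PDC, HUVEC, MSC) treated with POLQ inhibitor combinations; where Cmax unknown, highest tested concentration 10 microM, except SN-38 at 1 microM.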

[1] = second compound 0.0316 µM, first compound 0.00316 µM
[2] = second compound 0.0316 µM, first compound 0.01 µM
[3] = second compound 0.0316 µM, first compound 0.0316 µM
[4] = second compound 0.0316 µM, first compound 0.1 µM
[5] = second compound 0.1 µM, first compound 0.00316 µM
[6] = second compound 0.1 µM, first compound 0.01 µM
[7] = second compound 0.1 µM, first compound 0.0316 µM
[8] = second compound 0.1 µM, first compound 0.1 µM
[9] = second compound 0.316 µM, first compound 0.00316 µM
[10] = second compound 0.316 µM, first compound 0.01 µM
[11] = second compound 0.316 µM, first compound 0.0316 µM
[12] = second compound 0.316 µM, first compound 0.1 µM
[13] = second compound 1 µM, first compound 0.00316 µM
[14] = second compound 1 µM, first compound 0.01 µM
[15] = second compound 1 µM, first compound 0.0316 µM
[16] = second compound 1 µM, first compound 0.1 µM
[17] = second compound 3.16 µM, first compound 0.00316 µM
[18] = second compound 3.16 µM, first compound 0.01 µM
[19] = second compound 3.16 µM, first compound 0.0316 µM
[20] = second compound 3.16 µM, first compound 0.1 µM
[21] = second compound 10 µM, first compound 0.00316 µM
[22] = second compound 10 µM, first compound 0.01 µM
[23] = second compound 10 µM, first compound 0.0316 µM
[24] = second compound 10 µM, first compound 0.1 µM
[25] = second compound 0.0316 µM, first compound 0.316 µM
[26] = second compound 0.0316 µM, first compound 1 µM
[27] = second compound 0.1 µM, first compound 0.316 µM
[28] = second compound 0.1 µM, first compound 1 µM
[29] = second compound 0.316 µM, first compound 0.316 µM
[30] = second compound 0.316 µM, first compound 1 µM
[31] = second compound 1 µM, first compound 0.316 µM
[32] = second compound 1 µM, first compound 1 µM
[33] = second compound 3.16 µM, first compound 0.316 µM
[34] = second compound 3.16 µM, first compound 1 µM
[35] = second compound 10 µM, first compound 0.316 µM
[36] = second compound 10 µM, first compound 1 µM
[37] = second compound 0.0316 µM, first compound 3.16 µM
[38] = second compound 0.0316 µM, first compound 10 µM
[39] = second compound 0.1 µM, first compound 3.16 µM
[40] = second compound 0.1 µM, first compound 10 µM
[41] = second compound 0.316 µM, first compound 3.16 µM
[42] = second compound 0.316 µM, first compound 10 µM
[43] = second compound 1 µM, first compound 3.16 µM
[44] = second compound 1 µM, first compound 10 µM
[45] = second compound 3.16 µM, first compound 3.16 µM
[46] = second compound 3.16 µM, first compound 10 µM
[47] = second compound 10 µM, first compound 3.16 µM
[48] = second compound 10 µM, first compound 10 µM
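Further: spheroids exposed to the agents for one week.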
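Wherever viability, T/C is given: 100% = DMSO vehicle control wells.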

CC[C@@]1(O)C(=O)OCc2c1cc1n(c2=O)Cc2cc3c(CN(C)C)c(O)ccc3nc2-1 + COC1C(OC(N)=O)C(O)C(Oc2ccc3c(O)c(NC(=O)c4ccc(O)c(CC=C(C)C)c4)c(=O)oc3c2C)OC1(C)C
7.15: pIC50 (second compound 0.1 µM) | pIC50 (second compound 1 µM) | pIC50 (second compound 3.16 µM)
7.08: pIC50 (second compound 0.316 µM)
7.13: pIC50 (second compound 0.0316 µM)
7.11: pIC50 (second compound 10 µM)
inactive: viability, T/C (second compound 0.0316 µM, first compound 0.000316 µM) 102% | viability, T/C (second compound 0.0316 µM, first compound 0.001 µM) 83% | viability, T/C [1] 98.2% | viability, T/C [2] 93.5% | viability, T/C [3] 76% | viability, T/C [4] 41.3% | viability, T/C (second compound 0.1 µM, first compound 0.000316 µM) 100% | viability, T/C (second compound 0.1 µM, first compound 0.001 µM) 101% | viability, T/C [5] 102% | viability, T/C [6] 98.8% | viability, T/C [7] 75.3% | viability, T/C [8] 39.1% | viability, T/C (second compound 0.316 µM, first compound 0.000316 µM) 100% | viability, T/C (second compound 0.316 µM, first compound 0.001 µM) 96.6% | viability, T/C [9] 100% | viability, T/C [10] 96.5% | viability, T/C [11] 85.9% | viability, T/C [12] 43.6% | viability, T/C (second compound 1 µM, first compound 0.000316 µM) 108% | viability, T/C (second compound 1 µM, first compound 0.001 µM) 98.7% | viability, T/C [13] 96.9% | viability, T/C [14] 94.6% | viability, T/C [15] 73.3% | viability, T/C [16] 39.2% | viability, T/C (second compound 3.16 µM, first compound 0.000316 µM) 93.9% | viability, T/C (second compound 3.16 µM, first compound 0.001 µM) 99% | viability, T/C [17] 89.7% | viability, T/C [18] 90.9% | viability, T/C [19] 79% | viability, T/C [20] 37.2% | viability, T/C (second compound 10 µM, first compound 0.000316 µM) 92.6% | viability, T/C (second compound 10 µM, first compound 0.001 µM) 76.9% | viability, T/C [21] 88.3% | viability, T/C [22] 84.4% | viability, T/C [23] 84.6% | viability, T/C [24] 40.7%

CCc1c2c(nc3ccc(O)cc13)-c1cc3c(c(=O)n1C2)COC(=O)[C@]3(O)CC + COC1C(OC(N)=O)C(O)C(Oc2ccc3c(O)c(NC(=O)c4ccc(O)c(CC=C(C)C)c4)c(=O)oc3c2C)OC1(C)C
8.13: pIC50 (second compound 1 µM)
inactive: viability, T/C [1] 81.4% | viability, T/C [2] 28.9% | viability, T/C [3] 14.3% | viability, T/C [4] 11.3% | viability, T/C [25] 13.4% | viability, T/C [26] 15.7% | viability, T/C [5] 85.7% | viability, T/C [6] 42.6% | viability, T/C [7] 14.8% | viability, T/C [8] 12.7% | viability, T/C [27] 12.1% | viability, T/C [28] 17.8% | viability, T/C [9] 85.5% | viability, T/C [10] 42.5% | viability, T/C [11] 12% | viability, T/C [12] 11.8% | viability, T/C [29] 11.8% | viability, T/C [30] 19.4% | viability, T/C [13] 85.6% | viability, T/C [14] 37.9% | viability, T/C [15] 11.6% | viability, T/C [16] 9.81% | viability, T/C [31] 12.3% | viability, T/C [32] 16.5% | viability, T/C [17] 76.3% | viability, T/C [18] 38.5% | viability, T/C [19] 15.2% | viability, T/C [20] 11.2% | viability, T/C [33] 14.2% | viability, T/C [34] 19.2% | viability, T/C [21] 83.8% | viability, T/C [22] 38.8% | viability, T/C [23] 10% | viability, T/C [24] 10.3% | viability, T/C [35] 13.1% | viability, T/C [36] 17%
8.12: pIC50 (second compound 10 µM)
8.09: pIC50 (second compound 0.1 µM) | pIC50 (second compound 0.316 µM)
8.15: pIC50 (second compound 3.16 µM)
8.20: pIC50 (second compound 0.0316 µM)

COc1cc(C2c3cc4c(cc3C(OC3OC5COC(C)OC5C(O)C3O)C3COC(=O)C23)OCO4)cc(OC)c1O (stereo not drawn) + COC1C(OC(N)=O)C(O)C(Oc2ccc3c(O)c(NC(=O)c4ccc(O)c(CC=C(C)C)c4)c(=O)oc3c2C)OC1(C)C
5.11: pIC50 (second compound 0.1 µM) | pIC50 (second compound 10 µM)
inactive: viability, T/C [3] 98% | viability, T/C [4] 91% | viability, T/C [25] 100% | viability, T/C [26] 98.6% | viability, T/C [37] 74.1% | viability, T/C [38] 30.7% | viability, T/C [7] 99.7% | viability, T/C [8] 89.4% | viability, T/C [27] 93.9% | viability, T/C [28] 88.3% | viability, T/C [39] 72.9% | viability, T/C [40] 43.2% | viability, T/C [11] 107% | viability, T/C [12] 97.7% | viability, T/C [29] 106% | viability, T/C [30] 90% | viability, T/C [41] 69.6% | viability, T/C [42] 46.4% | viability, T/C [15] 96.2% | viability, T/C [16] 93.8% | viability, T/C [31] 91.9% | viability, T/C [32] 89.2% | viability, T/C [43] 72.9% | viability, T/C [44] 39.5% | viability, T/C [19] 99.7% | viability, T/C [20] 97.7% | viability, T/C [33] 89.2% | viability, T/C [34] 88.6% | viability, T/C [45] 81.8% | viability, T/C [46] 37.1% | viability, T/C [23] 72.1% | viability, T/C [24] 84.5% | viability, T/C [35] 89.4% | viability, T/C [36] 76.1% | viability, T/C [47] 85.1% | viability, T/C [48] 41.6%
5.15: pIC50 (second compound 1 µM) | pIC50 (second compound 3.16 µM)
5.08: pIC50 (second compound 0.316 µM)
5.22: pIC50 (second compound 0.0316 µM)

Nc1ccn(C2OC(CO)C(O)C2(F)F)c(=O)n1 (stereo not drawn) + COC1C(OC(N)=O)C(O)C(Oc2ccc3c(O)c(NC(=O)c4ccc(O)c(CC=C(C)C)c4)c(=O)oc3c2C)OC1(C)C
active: viability, T/C [4] 10.7% | viability, T/C [25] 10.7% | viability, T/C [26] 10.6% | viability, T/C [37] 8.5% | viability, T/C [38] 8.9% | viability, T/C [28] 9.28% | viability, T/C [39] 9% | viability, T/C [40] 8.97% | viability, T/C [16] 8.68% | viability, T/C [31] 9.63% | viability, T/C [32] 10.4% | viability, T/C [43] 7.97% | viability, T/C [44] 9.31% | viability, T/C [33] 10.3% | viability, T/C [34] 10.4% | viability, T/C [45] 12.1% | viability, T/C [46] 8.3% | viability, T/C [23] 8.46% | viability, T/C [24] 10.1% | viability, T/C [35] 9.42% | viability, T/C [36] 8.26% | viability, T/C [47] 8.87% | viability, T/C [48] 8.43%
inactive: viability, T/C [3] 10.3% | viability, T/C [7] 12.4% | viability, T/C [8] 12.8% | viability, T/C [27] 10.4% | viability, T/C [11] 11.4% | viability, T/C [12] 11.6% | viability, T/C [29] 11.5% | viability, T/C [30] 8.83% | viability, T/C [41] 10.4% | viability, T/C [42] 9.46% | viability, T/C [15] 11.9% | viability, T/C [19] 12.1% | viability, T/C [20] 8.92%
> 7.50: pIC50 (second compound 0.0316 µM) | pIC50 (second compound 0.1 µM) | pIC50 (second compound 0.316 µM) | pIC50 (second compound 1 µM) | pIC50 (second compound 3.16 µM) | pIC50 (second compound 10 µM)
